The values below come from PMC10282731, “Pyrrolo[2,3-e]indazole as a novel chemotype for both influenza A virus and pneumococcal neuraminidase inhibitors” (RSC Advances, 2023).

Values after ≈ are worked out from the molar mass of the structure shown. Values joined by “and” are separate entries in the source; they are usually repeats but may differ in a detail not shown here. Identical values can stand only once. Like-named read-outs stand apart in the source and are kept apart here. Marks after values point to notes of the source that are not given here.

Data set [1] deals with T1, neuraminidase NanA of S. pneumoniae strain DSM20566 (Streptococcus pneumoniae, UniProt P62575). To be noted: Published; cited from earlier work.
T1 sequence (P62575 54-1035): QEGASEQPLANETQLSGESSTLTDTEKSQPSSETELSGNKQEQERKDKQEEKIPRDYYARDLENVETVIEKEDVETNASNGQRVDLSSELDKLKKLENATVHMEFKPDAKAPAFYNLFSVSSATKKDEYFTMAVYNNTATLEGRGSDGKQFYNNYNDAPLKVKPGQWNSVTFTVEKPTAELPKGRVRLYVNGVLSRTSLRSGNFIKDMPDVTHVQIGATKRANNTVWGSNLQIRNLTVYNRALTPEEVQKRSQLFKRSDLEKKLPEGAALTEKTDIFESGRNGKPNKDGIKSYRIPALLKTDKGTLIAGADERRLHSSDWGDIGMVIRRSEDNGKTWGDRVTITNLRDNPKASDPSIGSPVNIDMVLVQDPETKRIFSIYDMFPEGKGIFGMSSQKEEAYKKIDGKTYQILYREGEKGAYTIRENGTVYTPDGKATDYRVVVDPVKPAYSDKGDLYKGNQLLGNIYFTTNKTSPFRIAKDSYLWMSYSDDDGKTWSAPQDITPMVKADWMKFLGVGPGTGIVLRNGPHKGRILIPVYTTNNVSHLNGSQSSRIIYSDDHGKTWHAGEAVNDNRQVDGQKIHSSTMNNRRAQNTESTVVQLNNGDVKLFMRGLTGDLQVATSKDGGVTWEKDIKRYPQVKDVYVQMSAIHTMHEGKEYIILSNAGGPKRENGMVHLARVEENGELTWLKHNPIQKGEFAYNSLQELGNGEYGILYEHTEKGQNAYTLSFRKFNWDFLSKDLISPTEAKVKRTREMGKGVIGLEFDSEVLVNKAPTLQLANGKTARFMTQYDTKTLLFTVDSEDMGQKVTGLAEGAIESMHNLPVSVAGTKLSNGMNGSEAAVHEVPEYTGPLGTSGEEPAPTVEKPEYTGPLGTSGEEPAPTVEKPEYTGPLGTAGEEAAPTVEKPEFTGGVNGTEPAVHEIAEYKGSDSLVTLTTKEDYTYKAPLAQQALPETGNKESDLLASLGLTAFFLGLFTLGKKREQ
Data set [2] concerns influenza A virus A/HK/1/68 (subtype H3N2). In words: Influenza A virus-induced CPE inhibition assay in MDCK cells (A/HK/1/68). The data set is classed as cell-based. The conditions noted are these: H3N2, 48 h, maximum 100 µM, n.a. = not active, read-out: IC50 (IAV) HK/1/68.
Data set [3] concerns neuraminidase of influenza A virus (IAV NA). In words: Human erythrocyte-based (hemagglutination-based) viral neuraminidase inhibition assay. Type of data set: biochemical, influenza A virus A/Jena/8178/09. To be noted: human erythrocytes, 37 °C for 24 h, maximum 100 µM for test compounds.
For data set [4], the system named is influenza A virus A/Jena/8178/09 (subtype A(H1N1)pdm09). Put plainly: Influenza A virus-induced CPE inhibition assay in MDCK cells (A/Jena/8178/09). Type of data set: cell-based. The conditions noted are these: A(H1N1)pdm09, 48 h, maximum 100 µM, n.a. = not active, read-out: IC50 (IAV) Jena/8178.
Data set [5] deals with S. pneumoniae DSM20566. Put plainly: Planktonic growth inhibition, microtiter broth microdilution assay. The data set is classed as cell-based, Streptococcus pneumoniae. The conditions noted are these: S. pneumoniae DSM20566, 18 h, OD 620 nm, maximum 50 μM; read-out: IC50 Planktonic growth. Background: Dilution methods test growth across graded concentrations, often in twofold steps.

Data set [6] addresses T1, neuraminidase NanA of S. pneumoniae strain DSM20566. Put plainly: Lectin-based hemagglutination NA inhibition assay with pneumococcal neuraminidase. Type of data set: biochemical. To be noted: ethanol-precipitated proteins of S. pneumoniae DSM20566, lectin-based hemagglutination assay.
In data set [7] the test system is S. pneumoniae DSM20566. Put plainly: Biofilm formation inhibition assay (crystal violet). To be noted: S. pneumoniae DSM20566, 24 h, crystal violet, maximum 50 μM; read-out: IC50 Biofilm formation. The data set is classed as cell-based, Streptococcus pneumoniae.
For data set [8], the system named is MDCK cells. To be noted: read-out: CC50 (MDCK), 72 h incubation, maximum 100 µM.
The nature of data set [9]: in vitro. To be noted: dog.
The target in data set [10] is viral hemagglutinin (Influenza A virus, UniProt C3W5S1). In words: Human erythrocyte-based assay, inhibition of viral hemagglutinin-induced hemagglutination at 4 °C. The data set is classed as biochemical. To be noted: human erythrocytes, influenza A virus A/Jena/8178/09.
viral hemagglutinin, sequence (C3W5S1 18-344 limits assumed): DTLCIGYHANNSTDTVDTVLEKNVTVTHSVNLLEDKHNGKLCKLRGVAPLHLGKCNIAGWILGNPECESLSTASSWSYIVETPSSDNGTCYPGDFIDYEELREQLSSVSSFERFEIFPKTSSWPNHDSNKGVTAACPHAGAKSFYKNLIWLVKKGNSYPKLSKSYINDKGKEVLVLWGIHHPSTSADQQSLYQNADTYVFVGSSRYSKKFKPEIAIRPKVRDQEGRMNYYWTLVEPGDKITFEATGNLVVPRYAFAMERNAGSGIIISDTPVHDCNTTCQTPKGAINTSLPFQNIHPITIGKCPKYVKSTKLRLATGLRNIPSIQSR
viral hemagglutinin, sequence (C3W5S1 345-566 limits assumed): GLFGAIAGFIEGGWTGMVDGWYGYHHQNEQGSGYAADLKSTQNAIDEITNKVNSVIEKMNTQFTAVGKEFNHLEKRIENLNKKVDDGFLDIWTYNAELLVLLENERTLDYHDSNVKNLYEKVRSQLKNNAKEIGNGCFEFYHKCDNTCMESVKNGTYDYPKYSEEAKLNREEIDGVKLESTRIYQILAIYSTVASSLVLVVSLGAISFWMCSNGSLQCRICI

For `CCOC(=O)C1=C[C@@H](OC(CC)CC)[C@H](NC(C)=O)[C@@H](N)C1` [Oseltamivir, oseltamivir, reference compound], the “MIC S.p. NanA (minimum neuraminidase inhibitory concentration)” value in data set [1] is reported as 2.08 ^a μM. The values for the IC50 in data set [2] and in data set [4] were 0.004 µM and 0.14 µM, respectively. For the same compound, in [3], the “MIC IAV NA (minimum neuraminidase inhibitory concentration)” value came out at 1.97 µM (≈ 0.615 µg/mL).
Consider “5-Hydroxy-3-ethoxycarbonyl-2-methyl-6-phenyl-8-[4-(trifluoromethyl)phenyl]-pyrrolo[2,3-e]indazole [Compound 6h]”, for which the IC50 in data set [5] was 50 µM; in data set [2], 30.5 µM; in data set [4], 24.8 µM; in [7] it was 40.1 µM. The “MIC IAV NA (minimum neuraminidase inhibitory concentration)” value in data set [3] worked out at 24.40 µM. The “MIC S.p. NanA (minimum neuraminidase inhibitory concentration)” value in data set [6] was 10.0 µM and 10.00 µM. In addition, in data set [8], the CC50 is more than 100 µM.
`CCOC(=O)c1c(C)[nH]c2c1cc(OC(C)=O)c1c2c(-c2ccc(N)cc2)nn1-c1ccccc1` [Compound 13] yielded a CC50 at 72 h in data set [9] of more than 100 µM. Also, the values for the IC50 in data set [2] (Influenza A virus) and in data set [4] (Influenza A virus) were 9.39 µM and 14.1 µM, respectively. Besides, in data set [3], the “MIC IAV NA (minimum neuraminidase inhibitory concentration)” value was determined as 14.20 µM (≈ 6.65 µg/mL). Also, the “Inhibition of hemagglutination (concentration)” value in data set [10] was 31.6 µM.
